≈ marks a conversion by molar mass, not a printed value.
Experiment: High-throughput Equilibrium Solubility measurement
Assay type: physicochemical
Details: phosphate buffer, pH 6.8

solubility: 17 µM (≈ 6.4 µg/mL)
SMILES: N#Cc1c[nH]c2c(C(=O)N3CCN(CCc4ccc(F)cc4)CC3)cccc12 [compound 3, pruvanserin]

— paper PMC8513920 (Chemical Science, 2021)
